Measurements taken from patent US11629135B2 (JUBILANT PRODEL LLC, priority 2017, dated 2023).

What follows are compounds tested against T1, PD-1/PD-L1 interaction (Homo sapiens, UniProt Q9NZQ7) (assay: PD-1/PD-L1 Homogenous Time-Resolved Fluorescence (HTRF) binding assay). Conditions: Biochemical PD1/PD-L1 inhibition.
T1 construct: Tag1 or Tag2 (undisclosed kit tag); purchased CisBio 63ADK000CPAPEG
Description: PD-L1 Enzyme Assay: Homogenous Time-Resolved Fluorescence (HTRF) Binding Assay
All binding studies were performed using PD-1/PD-L1 Binding Assay Kit from CisBio (Catalog #63ADK000CPAPEG), according to the manufacturer's protocol. The interaction between Tag1-PD-1 and […] was detected by anti-Tag1-Eu^3+ (HTRF donor) and anti-Tag2-XL665 (HTRF acceptor). When the donor and acceptor antibodies were brought to close proximity due to PD-1 and PD-L1 binding, excitation of the donor antibody triggered fluorescent resonance energy transfer (FRET) towards the acceptor antibody, which in turn emitted specifically at 665 nm. This specific signal is positively proportional to PD-1/PD-L1 interaction. The compounds blocking PD-1/PD-L1 interaction will cause a reduction in HTRF signal. The necessary reagents were mixed in the following order: 2 μl compounds (or diluents buffer), 4 μl PD-L1 protein, 4 μl PD-1 protein. After an incubation of 15 minutes, 5 μl of anti-Tag1-Eu^3+ and 5 μl of anti-Tag2-XL665 were added. The plate was sealed and incubated at RT for 1 h. The fluorescence emission was read at two different wavelengths (665 nm and 620 nm) on a BMG PheraStar® multiplate reader. Results were calculated from the 665 nm and 620 nm fluorescence signal and expressed in HTRF ratio=(665 nm/620 nm)×[…].

T1 sequence (Q9NZQ7 19-238 limits assumed): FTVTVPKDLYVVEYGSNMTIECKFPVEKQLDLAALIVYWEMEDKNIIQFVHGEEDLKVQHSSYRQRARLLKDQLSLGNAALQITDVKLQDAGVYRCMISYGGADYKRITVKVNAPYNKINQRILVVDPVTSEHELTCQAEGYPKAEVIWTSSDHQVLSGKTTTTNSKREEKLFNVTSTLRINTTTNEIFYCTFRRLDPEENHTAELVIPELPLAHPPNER

Compound	IC50
COc1nc(OCc2cccc(-c3ccccc3)c2C)ncc1CN1CCC[C@@H]2C[C@@]21C(=O)O (racemic) [Compound 48]	> 500 nM
COc1nc(OCc2cccc(-c3ccc(F)cc3)c2C)ncc1CNCCNC(C)=O [Compound 1, N-(2-(((2-((4′-fluoro-2-methyl-[1,1′-biphenyl]-3-yl)methoxy)-4-methoxypyrimidin-5-yl)methyl)amino)ethyl)acetamide]	> 500 nM
CCOc1nc(OCc2cccc(-c3ccccc3)c2C)ncc1CN(C)CC(=O)O [Compound 2, N-((4-ethoxy-2-((2-methyl-[1,1′-biphenyl]-3-yl)methoxy)pyrimidin-5-yl)methyl)-N-methyl glycine]	> 500 nM
Cc1c(COc2ncc(CN3CCCC[C@H]3C(=O)O)c(OCc3ccc(F)c(C#N)c3)n2)cccc1-c1ccccc1 [Compound 8, (S)-1-((4-((3-cyano-4-fluorobenzyl)oxy)-2-((2-methyl-[1,1′-biphenyl]-3-yl)methoxy)pyrimidin-5-yl)methyl)piperidine-2-carboxylic acid]	> 500 nM
Cc1c(COc2ncc(CN3CCCC[C@H]3C(=O)O)c(OCC(F)(F)F)n2)cccc1-c1ccccc1 [Compound 9, (S)-1-((2-((2-methyl-[1,1′-biphenyl]-3-yl)methoxy)-4-(2,2,2-trifluoroethoxy)pyrimidin-5-yl)methyl)piperidine-2-carboxylic acid]	> 500 nM
Cc1c(COc2ncc(CN3CCCC[C@H]3C(=O)O)c(OCCCCO)n2)cccc1-c1ccccc1 [Compound 10, (S)-1-((4-(4-hydroxybutoxy)-2-((2-methyl-[1,1′-biphenyl]-3-yl)methoxy)pyrimidin-5-yl)methyl)piperidine-2-carboxylic acid]	100 to 500 nM
Cc1c(COc2ncc(CN3CCCC[C@H]3C(=O)O)c(OCc3cncc(C#N)c3)n2)cccc1-c1ccccc1 [Compound 12, (S)-1-((4-((5-cyanopyridin-3-yl)methoxy)-2-((2-methyl-[1,1′-biphenyl]-3-yl)methoxy)pyrimidin-5-yl)methyl)piperidine-2-carboxylic acid]	> 500 nM
COc1nc(OCc2cccc(-c3ccc(F)cc3)c2C)ncc1CN1CCCC[C@H]1C(=O)O [Compound 16, (S)-1-((2-((4′-fluoro-2-methyl-[1,1′-biphenyl]-3-yl)methoxy)-4-methoxypyrimidin-5-yl)methyl)piperidine-2-carboxylic acid]	> 500 nM
COc1nc(OCc2cccc(-c3ccccc3F)c2C)ncc1CNCCNC(C)=O [Compound 20, N-(2-(((2-((2′-fluoro-2-methyl-[1,1′-biphenyl]-3-yl)methoxy)-4-methoxypyrimidin-5-yl)methyl)amino)ethyl)acetamide]	> 500 nM
CCOc1nc(OCc2cccc(-c3ccccc3)c2C)ncc1CNCCNC(C)=O [Compound 21, N-(2-(((4-ethoxy-2-((2-methyl-[1,1′-biphenyl]-3-yl)methoxy)pyrimidin-5-yl)methyl)amino)ethyl)acetamide]	> 500 nM
CCOc1nc(OCc2cccc(-c3ccccc3)c2C)ncc1CNCCC(=O)O [Compound 24]	> 500 nM
CCOc1nc(OCc2cccc(-c3ccccc3)c2C)ncc1CN[C@@H](C)CC(=O)O [Compound 27, (S)-3-(((4-ethoxy-2-((2-methyl-[1,1′-biphenyl]-3-yl)methoxy)pyrimidin-5-yl)methyl)amino)butanoic acid]	> 500 nM
CCOc1nc(OCc2cccc(-c3ccccc3)c2C)ncc1CNC(CC(N)=O)C(=O)O (centres unmarked) [Compound 29, ((4-ethoxy-2-((2-methyl-[1,1′-biphenyl]-3-yl)methoxy)pyrimidin-5-yl)methyl)asparagine]	100 to 500 nM
CCOc1nc(OCc2cccc(-c3ccccc3)c2C)ncc1CN1CCC1C(=O)O (centres unmarked) [Compound 31, 1-((4-ethoxy-2-((2-methyl-[1,1′-biphenyl]-3-yl)methoxy)pyrimidin-5-yl)methyl)azetidine-2-carboxylic acid]	100 to 500 nM
CC(=O)NCCNCc1cnc(OCc2cccc(-c3ccccc3)c2C)nc1OCc1ccccc1 [Compound 32, N-(2-(((4-(benzyloxy)-2-((2-methyl-[1,1′-biphenyl]-3-yl)methoxy)pyrimidin-5-yl)methyl)amino)ethyl)acetamide]	> 500 nM

Second part, the compound after the results:

IC50	Compound
< 100 nM	COc1nc(OCc2cccc(-c3ccccc3)c2C)nc(OC)c1CN1CCCC2C[C@]21C(=O)O (single isomer, unassigned) [Compound 4]
100 to 500 nM	COc1nc(OCc2cccc(-c3ccccc3)c2C)nc(OC)c1CN1CCC[C@@H]2C[C@@]21C(=O)O (single isomer, unassigned) [Compound 5]
100 to 500 nM	CCOc1nc(OCc2cccc(-c3ccccc3)c2C)ncc1CN1C[C@H](O)CC1C(=O)O (stereo in doubt) [Compound 30, (2R,4R)-1-((4-ethoxy-2-((2-methyl-[1,1′-biphenyl]-3-yl)methoxy)pyrimidin-5-yl)methyl)-4-hydroxypyrrolidine-2-carboxylic acid]
< 100 nM	COc1nc(OCc2cccc(-c3ccccc3)c2C)nc(OC)c1CNCCNC(C)=O [Compound 3, N-(2-(((4,6-dimethoxy-2-((2-methyl-[1,1′-biphenyl]-3-yl)methoxy)pyrimidin-5-yl)methyl)amino)ethyl)acetamide]
100 to 500 nM	CCOc1nc(OCc2cccc(-c3ccccc3)c2C)nc(OCC)c1CNCCNC(C)=O [Compound 6, N-(2-(((4,6-diethoxy-2-((2-methyl-[1,1′-biphenyl]-3-yl)methoxy)pyrimidin-5-yl)methyl)amino)ethyl)acetamide]
< 100 nM	COc1nc(OCc2cccc(-c3ccccc3)c2C)ncc1CN1CCCC[C@H]1C(=O)O [Compound 7, (S)-1-((4-methoxy-2-((2-methyl-[1,1′-biphenyl]-3-yl)methoxy)pyrimidin-5-yl)methyl)piperidine-2-carboxylic acid]
< 100 nM	COc1nc(OCc2cccc(-c3ccc4c(c3)OCCO4)c2C)nc(OC)c1CN1C[C@H](O)C[C@H]1C(=O)O [Compound 11, (2S,4R)-1-((2-((3-(2,3-dihydrobenzo[b][1,4]dioxin-6-yl)-2-methylbenzyl)oxy)-4,6-dimethoxypyrimidin-5-yl)methyl)-4-hydroxypyrrolidine-2-carboxylic acid]
100 to 500 nM	COc1nc(OCc2cccc(-c3cccc(OCCCN4CCC(F)(F)C4)c3C)c2C)ncc1CN1CCCC[C@H]1C(=O)O [Compound 13, (S)-1-((2-((3′-(3-(3,3-difluoropyrrolidin-1-yl)propoxy)-2,2′-dimethyl-[1,1′-biphenyl]-3-yl)methoxy)-4-methoxypyrimidin-5-yl)methyl)piperidine-2-carboxylic acid]
100 to 500 nM	COc1nc(OCc2cccc(-c3ccccc3)c2C)ncc1CNCCNC(C)=O [Compound 14, N-(2-(((4-methoxy-2-((2-methyl-[1,1′-biphenyl]-3-yl)methoxy)pyrimidin-5-yl)methyl)amino)ethyl)acetamide]
100 to 500 nM	COc1nc(OCc2cccc(-c3ccccc3)c2C)ncc1CN1CCCC[C@@H]1C(=O)O [Compound 15, (R)-1-((4-methoxy-2-((2-methyl-[1,1′-biphenyl]-3-yl)methoxy)pyrimidin-5-yl)methyl)piperidine-2-carboxylic acid]
100 to 500 nM	COc1nc(OCc2cccc(-c3cccc(F)c3)c2C)ncc1CN1CCCC[C@H]1C(=O)O [Compound 17, (S)-1-((2-((3′-fluoro-2-methyl-[1,1′-biphenyl]-3-yl)methoxy)-4-methoxypyrimidin-5-yl)methyl)piperidine-2-carboxylic acid]
100 to 500 nM	COc1nc(OCc2cccc(-c3cccc(F)c3)c2C)ncc1CNCCNC(C)=O [Compound 18, N-(2-(((2-((3′-fluoro-2-methyl-[1,1′-biphenyl]-3-yl)methoxy)-4-methoxypyrimidin-5-yl)methyl)amino)ethyl)acetamide]
100 to 500 nM	COc1nc(OCc2cccc(-c3ccccc3F)c2C)ncc1CN1CCCC[C@H]1C(=O)O [Compound 19, (S)-1-((2-((2′-fluoro-2-methyl-[1,1′-biphenyl]-3-yl)methoxy)-4-methoxypyrimidin-5-yl)methyl)piperidine-2-carboxylic acid]
100 to 500 nM	CCOc1nc(OCc2cccc(-c3ccccc3)c2C)ncc1CN1CCCC[C@H]1C(=O)O [Compound 22, (S)-1-((4-ethoxy-2-((2-methyl-[1,1′-biphenyl]-3-yl)methoxy)pyrimidin-5-yl)methyl)piperidine-2-carboxylic acid]
100 to 500 nM	CCOc1nc(OCc2cccc(-c3ccccc3)c2C)ncc1CNC1(C(=O)O)CC1 [Compound 23, 1-(((4-ethoxy-2-((2-methyl-[1,1′-biphenyl]-3-yl)methoxy)pyrimidin-5-yl)methyl)amino)cyclopropane-1-carboxylic acid]
< 100 nM	CCOc1nc(OCc2cccc(-c3ccccc3)c2C)ncc1CNC(CO)(CO)CO [Compound 25, 2-(((4-ethoxy-2-((2-methyl-[1,1′-biphenyl]-3-yl)methoxy)pyrimidin-5-yl)methyl)amino)-2-(hydroxymethyl)propane-1,3-diol]
100 to 500 nM	CCOc1nc(OCc2cccc(-c3ccccc3)c2C)ncc1CN[C@H](C)C(=O)O [Compound 28, ((4-ethoxy-2-((2-methyl-[1,1′-biphenyl]-3-yl)methoxy)pyrimidin-5-yl)methyl)-D-alanine]
